This note sets out measurements from PubChem BioAssay AID330 (DTP/NCI, 2004).

Values joined by “and” are separate entries in the source; they are usually repeats but may differ in a detail not shown here. Equal entries are not always repeated. Inconclusive results and toxic doses are left out.

The test deals with P388 leukemia ip, CD2F1 mice, survival T/C. The experiment in a line: NCI In Vivo Anticancer Drug Screen. Data for tumor model P388 Leukemia (intraperitoneal) in CD2F1 (CDF1) mice. To be noted: endpoint: median survival time, higher = longer survival. A digest of the protocol: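 Mice carrying the transplanted tumor received test compound or vehicle. Survival was recorded in each group, and the value is the treated-group measurement divided by that of the vehicle-treated control group.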

Setting [1] is: dose: 50.0 mg/kg/injection, schedule: Q01DX005 (ip), vehicle: saline with Tween-80.
The mark [2] stands for this setting: dose: 100.0 mg/kg/injection, schedule: Q01DX001 (ip), vehicle: saline.
Setting [3] is: dose: 100.0 mg/kg/injection, schedule: Q01DX005 (ip), vehicle: saline with Tween-80.
Setting [4] is: dose: 200.0 mg/kg/injection, schedule: Q01DX005 (ip), vehicle: saline with Tween-80.

Regarding `O=[N+]([O-])c1ccc2c(ccc3sc4ccccc4[n+]32)c1`, the T/C runs as follows: (dose: 6.25 mg/kg/injection, schedule: Q01DX005 (ip), vehicle: saline with Tween-80) 95 % of control; (dose: 12.5 mg/kg/injection, schedule: Q01DX005 (ip), vehicle: saline with Tween-80) 108 % of control; (dose: 25.0 mg/kg/injection, schedule: Q01DX005 (ip), vehicle: saline with Tween-80) 111 % of control; under setting [1], 112 % of control.

As to `C=C1C(=O)O[C@@H]2[C@H]3C(C)=CC[C@H]3C(C)=CC[C@@H]12`, the T/C was 106 % of control under setting [2]; 103 % of control (dose: 200.0 mg/kg/injection, schedule: Q01DX001 (ip), vehicle: saline); 107 % of control (dose: 400.0 mg/kg/injection, schedule: Q01DX001 (ip), vehicle: saline).

In the case of `CC(=O)Nc1cccc(/C=C/C=C/c2ccc([N+](=O)[O-])cc2)c1`, the T/C by setting is: (dose: 37.5 mg/kg/injection, schedule: Q01DX001 (ip), vehicle: saline with Tween-80) 100 % of control; (dose: 75.0 mg/kg/injection, schedule: Q01DX001 (ip), vehicle: saline with Tween-80) 95 % of control; (dose: 150.0 mg/kg/injection, schedule: Q01DX001 (ip), vehicle: saline with Tween-80) 90 % of control.

Take `O=C1CC(C(=O)O)N(C(=O)Oc2ccccc2)C(C(=O)O)C1` (stereo unspecified): the T/C is, setting by setting: (dose: 4.38 mg/kg/injection, schedule: Q01DX005 (ip), vehicle: Klucel (hydroxypropylcellulose) (HPC)) 98 % of control; (dose: 8.75 mg/kg/injection, schedule: Q01DX005 (ip), vehicle: Klucel (hydroxypropylcellulose) (HPC)) 105 % of control; (dose: 17.5 mg/kg/injection, schedule: Q01DX005 (ip), vehicle: Klucel (hydroxypropylcellulose) (HPC)) 101 % of control.

Turning to `COC(=O)C(CC(C)C)NC(=O)C(Cc1ccc(O)cc1)N(C(=O)OCc1ccccc1)C(=O)OCc1ccccc1` (stereo unspecified), the T/C under setting [1] is 103 % of control, the T/C under setting [3] was 94 % of control and the T/C under setting [4] was 92 % of control.

In the case of `C=C1C(=O)OC2/C=C(\C)C(O)CCC(C)(O)CC(OC(=O)/C(C)=C/C)C12` (stereo unspecified), the T/C is 104 % of control (dose: 7.5 mg/kg/injection, schedule: Q01DX009 (ip), vehicle: saline with Tween-80); 98 % of control (dose: 15.0 mg/kg/injection, schedule: Q01DX009 (ip), vehicle: saline with Tween-80); 104 % of control (dose: 30.0 mg/kg/injection, schedule: Q01DX009 (ip), vehicle: saline with Tween-80); 108 % of control (dose: 60.0 mg/kg/injection, schedule: Q01DX009 (ip), vehicle: saline with Tween-80).

Turning to `O=C(NO)C1CCCCC1O` (stereo unspecified), the T/C is, setting by setting: (dose: 12.5 mg/kg/injection, schedule: Q04DX003 (ip), vehicle: saline) 100 % of control; (dose: 25.0 mg/kg/injection, schedule: Q04DX003 (ip), vehicle: saline) 100 % of control; (dose: 50.0 mg/kg/injection, schedule: Q04DX003 (ip), vehicle: saline) 110 % of control; (dose: 400.0 mg/kg/injection, schedule: Q04DX003 (ip), vehicle: saline) 110 % of control.

For `O=S(=O)(CBr)OCCCl`, the T/C was 120 % of control under setting [1]; 159 % of control (dose: 150.0 mg/kg/injection, schedule: Q01DX005 (ip), vehicle: saline with Tween-80); 200 % of control under setting [4].

As for `O=C(Nc1ncc([N+](=O)[O-])s1)c1cc(Cl)cc(Cl)c1`, the T/C is, setting by setting: (dose: 12.5 mg/kg/injection, schedule: Q01DX005 (ip), vehicle: Klucel (hydroxypropylcellulose) (HPC)) 104 % of control; (dose: 25.0 mg/kg/injection, schedule: Q01DX005 (ip), vehicle: Klucel (hydroxypropylcellulose) (HPC)) 100 % of control; (dose: 50.0 mg/kg/injection, schedule: Q01DX005 (ip), vehicle: Klucel (hydroxypropylcellulose) (HPC)) 100 % of control and 101 % of control.

Take `O=C(O)C1CCCN1C(=O)c1cccc(Cl)c1` (stereo unspecified): the T/C runs as follows: under setting [1], 94 % of control; under setting [3], 96 % of control; under setting [4], 87 % of control.

`COc1ccc(CC2C(=O)NC(C)C(=O)N(C)C3Cc4ccc(cc4)Oc4cc(ccc4O)CC(C(=O)NC(C)C(=O)NC(C)C(=O)N2C)N(C)C3=O)cc1` (stereo unspecified): the T/C is, setting by setting: (dose: 0.19 mg/kg/injection, schedule: Q03HX024 (ip), vehicle: other) 156 % of control; (dose: 0.38 mg/kg/injection, schedule: Q03HX024 (ip), vehicle: other) 171 % of control; (dose: 0.45 mg/kg/injection, schedule: Q01DX005 (iv), vehicle: other) 108 % of control; (dose: 0.5 mg/kg/injection, schedule: Q01DX009 (ip), vehicle: other) 161 % of control; (dose: 0.75 mg/kg/injection, schedule: Q03HX024 (ip), vehicle: other) 167 % of control; (dose: 0.9 mg/kg/injection, schedule: Q01DX005 (ip), vehicle: other) 166 % of control. The T/C (dose: 0.9 mg/kg/injection, schedule: Q01DX005 (iv), vehicle: other) was 96 % of control; the T/C (dose: 1.0 mg/kg/injection, schedule: Q01DX009 (ip), vehicle: other) is 172 % of control; the T/C (dose: 1.0 mg/kg/injection, schedule: Q01DX009 (ip), vehicle: saline with Tween-80) is 163 % of control; the T/C (dose: 1.13 mg/kg/injection, schedule: Q01DX001 (iv), vehicle: other) was 103 % of control; the T/C (dose: 1.13 mg/kg/injection, schedule: Q03HX008 (ip), vehicle: other) was 162 % of control; the T/C (dose: 1.5 mg/kg/injection, schedule: Q04DX003 (ip), vehicle: other) was 157 % of control. For the same compound, the T/C was 173 % of control (dose: 1.8 mg/kg/injection, schedule: Q01DX005 (ip), vehicle: other); 99 % of control (dose: 1.8 mg/kg/injection, schedule: Q01DX005 (iv), vehicle: other); 192 % of control (dose: 2.0 mg/kg/injection, schedule: Q01DX009 (ip), vehicle: other); 152 % of control and 159 % of control (dose: 2.0 mg/kg/injection, schedule: Q01DX009 (ip), vehicle: saline with Tween-80); 105 % of control (dose: 2.0 mg/kg/injection, schedule: Q01DX009 (oral), vehicle: other); 105 % of control (dose: 2.25 mg/kg/injection, schedule: Q01DX001 (iv), vehicle: other). Further, the T/C is, setting by setting: (dose: 3.0 mg/kg/injection, schedule: Q04DX003 (ip), vehicle: other) 152 % of control; (dose: 3.6 mg/kg/injection, schedule: Q01DX005 (ip), vehicle: other) 163 % of control; (dose: 3.6 mg/kg/injection, schedule: Q01DX005 (iv), vehicle: other) 116 % of control; (dose: 4.0 mg/kg/injection, schedule: Q01DX009 (ip), vehicle: other) 193 % of control; (dose: 4.0 mg/kg/injection, schedule: Q01DX009 (ip), vehicle: saline with Tween-80) 174 % of control and 186 % of control; (dose: 4.0 mg/kg/injection, schedule: Q01DX009 (oral), vehicle: other) 103 % of control. For the same compound, the T/C is, setting by setting: (dose: 4.5 mg/kg/injection, schedule: Q01DX001 (iv), vehicle: other) 111 % of control; (dose: 6.0 mg/kg/injection, schedule: Q04DX003 (ip), vehicle: other) 163 % of control; (dose: 7.2 mg/kg/injection, schedule: Q01DX005 (ip), vehicle: other) 182 % of control; (dose: 7.2 mg/kg/injection, schedule: Q01DX005 (iv), vehicle: other) 153 % of control; (dose: 8.0 mg/kg/injection, schedule: Q01DX009 (ip), vehicle: other) 233 % of control; (dose: 8.0 mg/kg/injection, schedule: Q01DX009 (ip), vehicle: saline with Tween-80) 155 % of control. For the same compound, the T/C is 96 % of control (dose: 8.0 mg/kg/injection, schedule: Q01DX009 (oral), vehicle: other); 123 % of control (dose: 9.0 mg/kg/injection, schedule: Q01DX001 (iv), vehicle: other); 153 % of control (dose: 12.0 mg/kg/injection, schedule: Q04DX003 (ip), vehicle: other); 97 % of control (dose: 16.0 mg/kg/injection, schedule: Q01DX009 (oral), vehicle: other); 94 % of control (dose: 32.0 mg/kg/injection, schedule: Q01DX009 (oral), vehicle: other).

Turning to `CC1=C2CCCCCC2(O)OC1=O` (stereo unspecified), the T/C reads like this: (dose: 6.25 mg/kg/injection, schedule: Q01DX001 (ip), vehicle: saline) 109 % of control; (dose: 12.5 mg/kg/injection, schedule: Q01DX001 (ip), vehicle: saline) 111 % of control; (dose: 25.0 mg/kg/injection, schedule: Q01DX001 (ip), vehicle: saline) 104 % of control and 117 % of control; (dose: 50.0 mg/kg/injection, schedule: Q01DX001 (ip), vehicle: saline) 120 % of control; under setting [2], 100 % of control.

For the compound `COc1ccc2ccccc2c1Cc1ccc(N(C)C)cc1Cl`, the T/C under setting [1] was 92 % of control, the T/C under setting [3] is 95 % of control and the T/C under setting [4] is 90 % of control.
